Counter-ions that a name gives are not always drawn.
Tested on: hair cells
Experiment: Hair cell toxicity assay in zebrafish (neomycin-induced hair cell death, DASPEI staining of neuromasts)
Assay type: in vivo
Settings: Danio rerio; for Emax at 25 µM: maximum observed @ 25 μM test compound; for EC50: zebrafish larvae 5-7 dpf, 1 h pre-treatment, then 200 micromolar neomycin + test compound 30 min, read-out: HC50 (concentration that would produce 50% hair cell survival); for Emax at 2.8 µM: maximum observed @ 2.8 μM test compound; for Emax at 8.3 µM: maximum observed @ 8.3 μM test compound
Description: Zebrafish are bred and newly fertilized embryos are collected the week prior and raised at 28.5° C. in petri dishes containing embryo medium. Newly hatched free-swimming larvae are fed paramecium and dry fish food at 4 days post fertilization (dpf) with lights on. For treatment, fish 5-7 dpf are transferred to cell culture baskets and place within a well of a 6-well plate containing 7 milliliters of 1× embryo medium. Typically, tests are done with ten fish per basket but work well with up to 50 fish. All treatment and wash volumes are 7 milliliters. • 1. Fish are pre-treated with test compound for 1 hour. […] Treat with 200 micromolar neomycin (neomycin sulfate, Sigma, St. Louis, Mo., catalog #N1142)+test compound for 30 minutes. • 3. Rinse fish briefly 4 times in embryo medium and add 700 μl of 0.05% DASPEI (2-{4-(dimethylamino)styryl}-N-ethylpyridinium iodide, Molecular Probes, Eugene, Oreg.) and allowed to stain for 15 minutes. • 4. Rinse twice in embryo medium and add 350 μl MS222 (0.55 ug/ml final concentration, 3-aminobenzoic acid ethyl ester, methansulfoneate salt, Sigma, St. Louis, Mo.) to anesthetize. • 5. View with epifluorescence dissecting microscope equipped with a DAPSEI filter set (excitation […], Chroma Technologies, Brattleboro, Vt.). For assessment of initial dose response curves, fish are transferred to wide depression slide with wide-bore pipette. The DASPEI staining of ten neuromasts (SO1, SO2, IO1, IO2, IO3, IO4, M2, MI1, MI2 and O2) on one side of an animal are evaluated. Each neuromast is scored for presence of DASPEI staining (score=2), reduced DASPEI staining (score=1) or absence of DASPEI staining (score=0). Total scores for an animal are tabulated, to give a composite score that can range from 0 to 20. Average scores and standard deviations are calculated for animals in each treatment group. Scores are normalized to control group (vehicle only, no drug, no neomycin) and expressed as % hair cell survival. HCmax is the maximum protection (hair cell survival) observed. • 6. If at least 50% hair cells survive, the HC50 (concentration that would produce 50% hair cell survival) is calculated as a linear extrapolation from the nearest concentrations of protective drug that produce hair cell survival below and above 50%. If less than 50% hair cells survive, the HC50 is not determined. 1× embryo media (standard lab EM): • 1 mM MgSO4, • 0.15 mM KH2PO4, • 0.05 mM Na2HPO4, • 1 mM CaCl2, • 0.5 mM KCl • 15 mM NaCl • 0.7 mM NaHCO3

[1] = 200 micromolar neomycin, read-out: Max HC Protection (HCmax, % hair cell survival)

NC(=O)c1c(NC(=O)Nc2ccc(Cl)cc2)sc2c1CC[N+]1(CCOCC1)C2 [Example 146, 3′-Carbamoyl-2′-[3-(4-chlorophenyl)ureido]-5′,7′-dihydro-4′H-spiro[morpholine-4,6′-thieno[2,3-c]pyridin]-4-ium iodide]
Emax at 25 µM [1]: 96%
EC50: 1 to 10 µM

CC(C)(C)OC(=O)CCCC[N+]1(C)CCc2c(sc(NC(=O)Nc3ccc(Cl)cc3)c2C(N)=O)C1 (stereo not shown) [Example 155, 6-(5-tert-Butoxy-5-oxopentyl)-3-carbamoyl-2-[3-(4-chlorophenyl)ureido]-6-methyl-4,5,6,7-tetrahydrothieno[2,3-c]pyridin-6-ium iodide]
Emax at 2.8 µM [1]: 75%
EC50: < 1 µM

CCN1CCc2c(sc(NC(=O)Nc3ccc(Cl)cc3)c2C(=O)NCCN(C)C)C1 [Example 99, 2-[3-(4-Chlorophenyl)ureido]-N-[2-(dimethylamino)ethyl]-6-ethyl-4,5,6,7-tetrahydrothieno[2,3-c]pyridine-3-carboxamide dihydrochloride]
Emax at 2.8 µM [1]: 18%

CC(C)CN1CCc2c(sc(NC(=O)Nc3ccc4ccccc4c3)c2C(N)=O)C1 [Example 34, 6-Isobutyl-2-[3-(naphthalen-2-yl)ureido]-4,5,6,7-tetrahydrothieno[2,3-c]pyridine-3-carboxamide hydrochloride]
Emax at 25 µM [1]: 87%
EC50: 1 to 10 µM

COC(=O)CCN1CCc2c(sc(NC(=O)Nc3ccc(Cl)cc3)c2C(N)=O)C1 [Example 55, Methyl 3-{3-carbamoyl-2-[3-(4-chlorophenyl)ureido]-4,5-dihydrothieno[2,3-c]pyridin-6(7H)-yl}propanoate]
Emax at 2.8 µM [1]: 17%

NC(=O)c1c(NC(=O)Nc2ccc(Cl)cc2)sc2c1CC1CCC2N1 (single isomer, unassigned; (-)) [Example 129, (−)-2-[3-(4-Chlorophenyl)ureido]-5,6,7,8-tetrahydro-4H-5,8-epiminocyclohepta[b]thiophene-3-carboxamide hydrochloride]
Emax at 2.8 µM [1]: 81%
EC50: < 1 µM

CC(C)C[N+]1(C)CCc2c(sc(NC(=O)Nc3ccc(Cl)c4ccccc34)c2C(N)=O)C1 (stereo not shown) [Example 181, 3-Carbamoyl-2-[3-(4-chloronaphthalen-1-yl)ureido]-6-isobutyl-6-methyl-4,5,6,7-tetrahydrothieno[2,3-c]pyridin-6-ium iodide]
Emax at 25 µM [1]: 93%
EC50: 1 to 10 µM

CCN1CCc2c(sc(NC(=O)Nc3ccc(C#N)cc3)c2C(N)=O)C1 [Example 67, 2-[3-(4-Cyanophenyl)ureido]-6-ethyl-4,5,6,7-tetrahydrothieno[2,3-c]pyridine-3-carboxamide hydrochloride]
Emax at 8.3 µM [1]: 20%

CC(C)C[N+]1(C)CCc2c(sc(NC(=O)Nc3ccc(Cl)cc3)c2C(N)=O)C1 (stereo not shown) [Example 135, 3-carbamoyl-2-[3-(4-chlorophenyl)ureido]-6-isobutyl-6-methyl-4,5,6,7-tetrahydrothieno[2,3-c]pyridin-6-ium iodide]
Emax at 25 µM [1]: 107%
EC50: < 1 µM

CCN1CCc2c(ccc(NC(=O)Nc3ccc(Cl)cc3)c2C(N)=O)C1 [Example 112, 6-[3-(4-chlorophenyl)ureido]-2-ethyl-1,2,3,4-tetrahydroisoquinoline-5-carboxamide hydrochloride]
Emax at 25 µM [1]: 49%

CCN1CCc2sc(NC(=O)Nc3ccc(Cl)cc3)c(C(N)=O)c2C1 [Example 116, 2-[3-(4-Chlorophenyl)ureido]-5-ethyl-4,5,6,7-tetrahydrothieno[3,2-c]pyridine-3-carboxamide hydrochloride]
Emax at 25 µM [1]: 82%
EC50: 1 to 10 µM

NCCN1CCc2c(sc(NC(=O)Nc3ccc(Cl)cc3)c2C(N)=O)C1 [Example 11, 6-(2-Aminoethyl)-2-[3-(4-chlorophenyl)ureido]-4,5,6,7-tetrahydrothieno[2,3-c]pyridine-3-carboxamide dihydrochloride]
Emax at 25 µM [1]: 68%
EC50: 1 to 10 µM

CCOC(=O)CCCN1CCc2c(sc(NC(=O)Nc3ccc(Cl)cc3)c2C(N)=O)C1 [Example 21, Ethyl 4-{3-carbamoyl-2-[3-(4-chlorophenyl)ureido]-4,5-dihydrothieno[2,3-c]pyridin-6(7H)-yl}butanoate hydrochloride]
Emax at 2.8 µM [1]: 57%
EC50: 1 to 10 µM

CC(C)OC(=O)CCN1CCc2c(sc(NC(=O)Nc3ccc(Cl)cc3)c2C(N)=O)C1 [Example 54, Isopropyl 3-{3-carbamoyl-2-[3-(4-chlorophenyl)ureido]-4,5-dihydrothieno[2,3-c]pyridin-6(7H)-yl}propanoate hydrochloride]
Emax at 25 µM [1]: 58%
EC50: 1 to 10 µM

CCN1CCCc2c(sc(NC(=O)Nc3ccc(Cl)cc3)c2C(N)=O)C1 [Example 114, 2-[3-(4-chlorophenyl)ureido)-7-ethyl-5,6,7,8-tetrahydro-4H-thieno[2,3-c]azepine-3-carboxamide hydrochloride]
Emax at 25 µM [1]: 97%
EC50: 1 to 10 µM

CCN1CCc2c(sc(NC(=O)Nc3cncc(Cl)c3)c2C(N)=O)C1 [Example 77, 2-[3-(5-Chloropyridin-3-yl)ureido]-6-ethyl-4,5,6,7-tetrahydrothieno[2,3-c]pyridine-3-carboxamide dihydrochloride]
Emax at 25 µM [1]: 45%

CCN1CCc2c(sc(NC(=O)Nc3ccc(Cl)cc3)c2C(=O)NCC2CC2)C1 [Example 97, 2-[3-(4-Chlorophenyl)ureido]-N-(cyclopropylmethyl)-6-ethyl-4,5,6,7-tetrahydrothieno[2,3-c]pyridine-3-carboxamide hydrochloride]
Emax at 8.3 µM [1]: 37%

CC(C)(C)OC(=O)NCCCN1CCc2c(sc(NC(=O)Nc3ccc(Cl)cc3)c2C(N)=O)C1 [Example 205, tert-butyl N-[3-(3-carbamoyl-2-{[(4-chlorophenyl)carbamoyl]amino}-4H,5H,6H,7H-thieno[2,3-c]pyridin-6-yl)propyl]carbamate]
Emax at 6.3 µM (maximum observed @ 6.3 μM test compound, 200 micromolar neomycin, read-out: Max HC Protection (HCmax, % hair cell survival)): 81%
EC50: 1 to 10 µM

CCN1CCc2c(sc(NC(=O)Nc3ccc(Cl)cc3)c2C(=O)NCc2cccnc2)C1 [Example 98, 2-[3-(4-Chlorophenyl)ureido]-6-ethyl-N-(pyridin-3-ylmethyl)-4,5,6,7-tetrahydrothieno[2,3-c]pyridine-3-carboxamide dihydrochloride]
Emax at 25 µM [1]: 52%
EC50: > 10 µM

CC(C)N1CCc2c(sc(NC(=O)Nc3ccc(Cl)cc3)c2C(N)=O)C1 [Example 2, 2-[3-(4-Chlorophenyl)ureido]-6-isopropyl-4,5,6,7-tetrahydrothieno[2,3-c]pyridine-3-carboxamide hydrochloride]
Emax at 25 µM [1]: 84%
EC50: 1 to 10 µM

COC(=O)C(C)(C)CN1CCc2c(sc(NC(=O)Nc3ccc(Cl)cc3)c2C(N)=O)C1 [Example 38, Methyl 3-{3-carbamoyl-2-[3-(4-chlorophenyl)ureido]-4,5-dihydrothieno[2,3-c]pyridin-6(7H)-yl}-2,2-dimethylpropanoate hydrochloride]
Emax at 2.8 µM [1]: 14%

NC(=O)c1c(NC(=O)Nc2ccc(Cl)cc2)sc2c1CC1CCC2N1 (racemic) [Example 122, (+/−)-2-[3-(4-chlorophenyl)ureido]-5,6,7,8-tetrahydro-4H-5,8-epiminocyclohepta[b]thiophene-3-carboxamide hydrochloride]
Emax at 25 µM [1]: 91%
EC50: < 1 µM

C[N+]1(CC2CCC2)CCc2c(sc(NC(=O)Nc3ccc(Cl)cc3)c2C(N)=O)C1 (stereo not shown) [Example 145, 3-Carbamoyl-2-[3-(4-chlorophenyl)ureido]-6-(cyclobutylmethyl)-6-methyl-4,5,6,7-tetrahydrothieno[2,3-c]pyridin-6-ium iodide]
Emax at 8.3 µM [1]: 95%
EC50: < 1 µM

C[N+]1(CC2CC2)CCc2c(sc(NC(=O)Nc3ccc(Cl)cc3)c2C(N)=O)C1 (stereo not shown) [Example 140, 3-Carbamoyl-2-[3-(4-chlorophenyl)ureido]-6-(cyclopropylmethyl)-6-methyl-4,5,6,7-tetrahydrothieno[2,3-c]pyridin-6-ium iodide]
Emax at 25 µM [1]: 92%
EC50: < 1 µM

CN(C)C(=O)CCC[N+]1(C)CCc2c(sc(NC(=O)Nc3ccc(Cl)cc3)c2C(N)=O)C1 (stereo not shown) [Example 165, 3-Carbamoyl-2-[3-(4-chlorophenyl)ureido]-6-[4-(dimethylamino)-4-oxobutyl]-6-methyl-4,5,6,7-tetrahydrothieno[2,3-c]pyridin-6-ium trifluoroacetate]
Emax at 2.8 µM [1]: 52%
EC50: 1 to 10 µM

Source: patent US9416141B2 (University of Washington through its Center for …, priority 2012, dated 2016)
